In patent US5736546A, “1,4-(diphenlyalkyl) piperazine derivatives” (Santen Pharmaceutical Co., Ltd., priority 1993, dated 1998):
Structures can show the parent of a compound that is named as a salt.

Legend:
μ receptors = μ receptors (Rattus norvegicus, UniProt P33535)
[1] = tested on: amount of acetylcholine in rat brain; assay: Increasing effects on the amount of intracerebral acetylcholine (intracerebral microdialysis method); assay type: in vivo, male Wistar rat; details: oral, 30 minutes after administration, averages of 3-7 samples
Protocol: (The New England Journal of Medicine, 315, 1241-1245 (1986)), the amount of acetylcholine in rat brain was then measured according to the report of Matsuno et al. (Brain Research, 575, 315-319 (1992)). […] 2. […] (The New England Journal of Medicine, 315, 1241-1245 (1986)), an experiment was performed to examine effects of the compounds of this invention on the amount of acetylcholine in rat brain. (Experimental Method) The amount of acetylcholine in rat brain was measured by the following method using intracerebral microdialysis method according to the report of Matsuno et al. (Brain Research, 575, 315-319 (1992)). […] The amount of acetylcholine in rat brain was measured with time. When it became constant, the test compound suspended in 1% methylcellulose solution was administered orally to the rat, and the amount of intracerebral acetylcholine was measured. The amount of acetylcholine in rat brain (average of six samples) to which the test compound was not administered was used as a control.

sigma receptors [2] = biological target: T1, sigma receptors (Cavia porcellus, UniProt Q60492); assay: Experiment using [3H](+)-PTZ as a labeled ligand (affinity for sigma receptors); set-up: species or system Hartley guinea pig; details: [3H](+)-PTZ 5 nM; guinea pig brain membrane; 37° C., 150 minutes; averages of 4-11 samples; read-out: IC50 (inhibition of specific binding of [3H](+)-PTZ)
T1 construct: A brain of a Hartley guinea pig (weight: 300-400 g) was excised; from tissue; host or cells: Hartley guinea pig brain, membrane preparation

sigma receptors [3] = biological target: T1, sigma receptors; assay: biochemical; set-up: species or system Hartley guinea pig; details: read-out: IC50 (inhibition of specific binding of [3H](+)-SKF-10047)

Sequence of μ receptors (P33535 whole entry): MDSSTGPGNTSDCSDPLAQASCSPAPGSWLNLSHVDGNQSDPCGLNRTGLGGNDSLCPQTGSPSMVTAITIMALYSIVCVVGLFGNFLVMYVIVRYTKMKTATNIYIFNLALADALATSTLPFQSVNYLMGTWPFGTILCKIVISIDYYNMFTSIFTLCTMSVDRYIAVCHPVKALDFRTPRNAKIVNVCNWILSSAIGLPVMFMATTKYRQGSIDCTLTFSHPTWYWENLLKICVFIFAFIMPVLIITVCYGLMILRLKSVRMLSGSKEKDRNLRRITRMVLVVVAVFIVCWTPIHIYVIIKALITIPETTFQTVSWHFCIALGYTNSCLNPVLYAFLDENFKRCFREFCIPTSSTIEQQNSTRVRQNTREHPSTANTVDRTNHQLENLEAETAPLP
T1 sequence (Q60492 whole entry): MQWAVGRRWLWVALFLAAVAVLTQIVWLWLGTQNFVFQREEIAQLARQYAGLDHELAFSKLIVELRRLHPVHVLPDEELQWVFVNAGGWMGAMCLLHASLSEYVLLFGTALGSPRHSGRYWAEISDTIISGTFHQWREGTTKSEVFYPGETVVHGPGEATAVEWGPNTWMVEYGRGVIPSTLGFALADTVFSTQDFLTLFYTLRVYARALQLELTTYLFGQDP

IC50 (μ receptors) [µM]	IC50 (sigma receptors [2]) [µM]	IC50 (sigma receptors [3]) [µM]	IC50 (sigma receptors [3]; [3H](+)-SKF-10047 5 nM, guinea pig brain membrane, 25° C., 30 minutes) [µM]	SMILES	amount of acetylcholine (% control) ([1]; 10 mg/kg)	amount of acetylcholine (% control) ([1]; 20 mg/kg)	amount of acetylcholine (% control) ([1]; 40 mg/kg)	amount of acetylcholine (% control) ([1]; 80 mg/kg)
> 10	0.018	0.00932	–	COc1ccc(CCN2CCN(CCc3ccccc3)CC2)cc1OC [compound No. 1-2, 1-[2-(3,4-Dimethoxyphenyl)ethyl]-4-(2-phenylethyl)piperazine dihydrochloride]	–	–	–	–
> 10	–	–	0.00428	COc1ccc(CCN2CCN(Cc3ccccc3)CC2)cc1OC [compound No. 1-3, 1-[2-(3,4-Dimethoxyphenyl)ethyl]-4-benzylpiperazine dihydrochloride]	–	–	–	–
–	0.0107	–	–	COc1ccc(CCN2CCN(CCCCc3ccccc3)CC2)cc1OC.Cl.Cl [compound No. 1-4, 1-[2-(3,4-Dimethoxyphenyl)ethyl]-4-(4-phenylbutyl)piperazine dihydrochloride]	–	–	146.2	164.9
–	0.0149	–	–	COc1ccc(CCCN2CCN(CCCc3ccccc3)CC2)cc1OC.Cl.Cl [compound No. 1-6, 1-[3-(3,4-Dimethoxyphenyl)propyl]-4-(3-phenylpropyl)piperazine dihydrochloride]	–	146.1	176.9	–

SMILES	IC50 (μ receptors) [µM]	IC50 (sigma receptors [2]) [µM]	IC50 (sigma receptors [3]) [µM]	IC50 (sigma receptors [3]; [3H](+)-SKF-10047 5 nM, guinea pig brain membrane, 25° C., 30 minutes) [µM]	amount of acetylcholine (% control) ([1]; 10 mg/kg)	amount of acetylcholine (% control) ([1]; 20 mg/kg)	amount of acetylcholine (% control) ([1]; 40 mg/kg)	amount of acetylcholine (% control) ([1]; 80 mg/kg)
COc1ccc(CCN2CCN(CCCc3ccccc3)CC2)cc1OC.Cl.Cl [compound No. 1-1, 1-[2-(3,4-Dimethoxyphenyl)ethyl]-4-(3-phenylpropyl)piperazine dihydrochloride]	> 10	–	–	–	154.3	170.0	–	–
